From patent US8273769B2, “Phenoxy acetic acid derivatives” (Merck Serono SA, priority 2009, dated 2012) come the findings set out here.

Test [1] relates to eosinophils in human whole blood. The test is described as follows: PGD2-induced eosinophil cell shape assay in human whole blood. It is filed as cell-based. The settings on record: 10 nM PGD2 final, flow cytometry. As to the method:
The Compounds of Formula (I) were diluted in dimethylsulphoxide so that the total volume of dimethylsulfoxide was kept constant at 2% dimethylsulphoxide (Me2SO). Serial dilutions of 200 μM to 0.09 μM were prepared. Samples of 90 μl of human blood from healthy volunteers (Centre de Transfusion Sanguine de Genève) were pre-incubated in polypropylene Falcon tubes (BD 352063) for 20 minutes in a water bath at 37° C. with 10 μl of diluted compounds. For CRTH2 activation, 100 μl PGD2 (Cayman 12010) at 20 nM was added (10 nM final) to each tube and cells were maintained at 37° C. For negative control cells were treated with PBS. After 10 minutes, cell activation was stopped with 120 μl Formaldehyde 10% (4% final, Fluka 41650) and cells were rested for 10 minutes at room temperature. Fixed cells were transferred into polypropylene tubes and then treated for 1 hour in a water bath at 37° C. with 2 ml of Triton-Surfact-Amps X-100 (Pierce 28314) at 0.166% (0.13% Triton final). After several washes with PBS (red cells lysed progressively during washes, two washes are necessary), cells were analyzed by flow cytometry on a FACSCalibur. In one embodiment, the compounds of Formula (I) of the present invention are capable of blocking the cell shape change of eosinophils induced by PGD2 in Whole Blood.
A general note: Flow cytometry measures light scatter and fluorescence of single cells or particles in a stream.

Test [2] addresses T1, CRTH2 (Homo sapiens, UniProt Q9Y5Y4).
T1 sequence (Q9Y5Y4 1-395): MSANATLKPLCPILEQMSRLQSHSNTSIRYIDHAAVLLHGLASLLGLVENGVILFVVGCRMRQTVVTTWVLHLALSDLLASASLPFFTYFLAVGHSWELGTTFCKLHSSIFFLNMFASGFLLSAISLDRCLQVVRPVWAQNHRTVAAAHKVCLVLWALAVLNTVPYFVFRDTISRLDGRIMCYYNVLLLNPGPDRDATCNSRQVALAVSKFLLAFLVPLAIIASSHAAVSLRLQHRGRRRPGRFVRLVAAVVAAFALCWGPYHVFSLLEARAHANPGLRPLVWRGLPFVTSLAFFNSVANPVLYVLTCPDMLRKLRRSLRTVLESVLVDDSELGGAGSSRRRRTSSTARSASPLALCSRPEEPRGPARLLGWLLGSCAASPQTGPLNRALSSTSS
Description: [35S]GTPγS binding assay (CHO-CRTH2 cell membranes). It is filed as biochemical. More on the design: expressed in transfected cells; host or cells: CHO-CRTH2 cells. Particulars: for IC50: antagonist mode, fixed concentration of PGD2 (EC80). As to the method: Adherent CHO cells expressing hCRTH2 (Euroscreen, Belgium) were cultured in 225 cm^2 cell culture flasks (Corning, USA) in 30 ml of medium. After two rinses of phosphate buffered saline (PBS), cells were harvested in 10 ml of PBS containing 1 mM EDTA, centrifuged at 500×g for 5 min at 4° C. and frozen at −80° C. The pellet was re-suspended in 50 mM Tris-HCl, pH 7.4, 2 mM EDTA, 250 mM Sucrose, containing protease inhibitor cocktail tablets, (Complete EDTA-free, Roche, Germany) and incubated 30 min at 4° C. Cells were disrupted by nitrogen cavitation (Parr Instruments, USA) at 4° C. (800 p.s.i. for 30 min), and centrifuged at 500×g for 10 min at 4° C. Pellet containing nuclei and cellular debris was discarded and supernatant was centrifuged 60 min at 4° C. at 45000×g. Membrane pellet was re-suspended in storage buffer (10 mM HEPES/KOH pH 7.4, 1 mM EDTA, 250 mM sucrose, protease inhibitor cocktail tablets) using Dounce homogenization and frozen in liquid nitrogen, and stored at −80° C.
The [^35S]GTPγS assay measures the increase in guanine nucleotide exchange at G-proteins in cell membranes, resulting from agonist (PGD2) binding to CRTH2. This process can be monitored in vitro by incubating cell membranes containing G-proteins and CRTH2 with GDP and [^35S]GTPγS, a radiolabeled, hydrolysis-resistant analogue of GTP (see, Harrison et al., Life Sciences 74, 489-508, 2003). The addition of a Compounds of Formula (I) results in binding to CRTH2 and thus in an inhibition of agonist binding, which can be monitored as inhibition of the stimulation of GTP/GDP exchange.
Briefly, Compounds of Formula (I) are incubated in 96-well scintillating white polystyrene plates (Perkin Elmer, USA) in a final volume of 200 μl containing 20 mM HEPES/KOH pH 7.4, 3 mM MgCl2, 10 μg/ml Saponin, 5 μM GDP, 75 mM NaCl and 2% of dimethylsulphoxide (DMSO). Reaction is triggered by the addition of 5-10 μg of CHO-CRTH2 cell membranes and 0.15 nM [^35S]GTPγS. After 60 min incubation at 30° C., reaction is stopped by centrifugation at 700×g, at 4° C. for 10 minutes and supernatant is removed. The radioactivity coming from the [^35S]GTPγS bound on centrifuged cell membranes is recorded using a 1450 Micro-beta scintillation counter. For IC50 determination, increasing concentrations of compounds are incubated in presence of a fixed concentration of PGD2 (EC80). For EC50 measurements, compounds are incubated without addition of PGD2. Basal [^35S]GTPγS activity is determined without addition of any ligands or compounds. 100% [^35S]GTPγS activity is measured by the addition of 1 μM of PGD2.
A general note: GTPγS resists hydrolysis and so accumulates on activated G proteins.

Test [3] deals with T1, CRTH2. The test is described as follows: Radioligand binding Scintillation Proximity Assay ([3H]PGD2, hCRTH2-CHO cell membranes). More on the design: host or cells: CHO cells. The settings on record: 1.5 nM [3H]PGD2, hCRTH2-CHO cell membranes, SPA. Summed up:
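SPA competition binding at room temperature, 90 min with agitation: 1.5 nM [3H]PGD2, 10-50 μg/ml hCRTH2-CHO membrane protein, WGA SPA beads, HEPES pH 7.4 with 10 mM MnCl2, 1% DMSO. Non-specific binding defined with 10 μM PGD2; scintillation counting.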

In test [4] the target is T1, CRTH2. The test is described as follows: Cellular Dielectric Spectroscopy (CHO-CRTH2 cells). More on the design: expressed in transfected cells; host or cells: CHO-CRTH2 cells. Particulars: for EC50 / Emax: partial agonists, agonist activity without PGD2; for IC50: antagonist mode, fixed concentration of PGD2 (EC80). It is filed as cell-based. The protocol:
Cellular Dielectric Spectroscopy (CDS) is a label-free technology based on the measurement of complex impedance changes (delta Z or dZ). Impedance (Z) is related to the ratio of voltage to current as described by Ohm's law (Z=V/I). In order to measure the changes in impedance that occur in response to receptor stimulation, mammalian cells are seeded onto a custom 96-well microliter plate that contains electrodes at the bottom of each well. Key contributors to the impedance measurements are changes in cell-substrate adherence, changes in cell shape and volume, and changes in cell-cell interactions. These factors individually or collectively affect the flow of current, influencing the magnitude and characteristics of the signal measured. G-protein coupled receptors ligand-induced activity can be measured using this technology and specific G protein coupling can be identified. Activities of reference agonist and antagonist molecules of CRTH2 have been measured using this assay and similar results were obtained compared to different functional assays.
CHO-CRTH2 cells are cultured in HAM's F12 (Lonza, Switzerland) supplemented with 10% foetal calf serum (PAA, Australia) and 400 μg/ml Geneticin. 100000 cells/well are seeded in standard 96W Microplates (MDS Analytical Technologies) and incubated at 37° C. in 5% CO2 for 24 hours. Cells are washed twice with 135 μl of cell key buffer (Hank's Balanced Salt Solution 1× (HBSS) (Invitrogen) supplemented with 10 mM HEPES pH 7.4 in presence of 1% DMSO). For EC50 determination. 15 μl of increasing concentration of Compounds of Formula (I) diluted in cell key buffer are added to the cells and agonist activity is then recorded for 25 minutes. […] Results are expressed as the amplitude between the highest and the lowest signal produced (max-min). Basal and maximum activities are measured, respectively in absence or presence of PGD2 (EC80).

By IC50 is commonly meant the concentration needed to halve the response being measured. Regarding `O=C(O)COc1ccc(Cl)cc1C#Cc1ccc(CO)cc1F` [Example 26, (4-chloro-2-{[2-fluoro-4-(hydroxymethyl)phenyl]ethynyl}phenoxy)acetic acid], the results for the IC50 in test [1], in test [2] and in test [3] were 679 nM, 140 nM and 28 nM, respectively.

For `Cc1ccc(S(C)(=O)=O)cc1C#Cc1cc(Cl)ccc1OCC(=O)O` [Example 33, (4-chloro-2-{[2-methyl-5-(methylsulfonyl)phenyl]ethynyl}phenoxy)acetic acid], the 50% inhibitory concentration (IC50) turned out to be 64 nM in test [1] and 9 nM in test [3].

The EC50 is the concentration that produces a half-maximal response. What is called Emax is the greatest response seen or fitted, relative to the assay's reference. For `Cc1ccncc1C#Cc1cc(C#N)ccc1OCC(=O)O` [Example 44, {4-cyano-2-[(4-methylpyridin-3-yl)ethynyl]phenoxy}acetic acid], the EC50 in test [4] worked out at 115 nM; in test [2] (partial agonist, without addition of PGD2), 40 nM. Also, the Emax stood at 59% in test [4] and 13% in test [2] (partial agonist, without PGD2, 100% = activity with 1 μM PGD2). This molecule showed an IC50 in test [3] of 60 nM.

As for `CS(=O)(=O)c1ccc(F)c(C#Cc2cc(Cl)ccc2OCC(=O)O)c1` [Example 48, (4-chloro-2-{[2-fluoro-5-(methylsulfonyl)phenyl]ethynyl}phenoxy)acetic acid], the IC50 in test [4] amounted to 9 nM; in test [1] it was 95 nM; in test [2] it was 15 nM; in test [3] it was 9 nM. A half-maximal effect in test [4] (EC50) was put at 1 nM. The Emax in test [4] is 12%.

As to `CCCc1ccc(S(C)(=O)=O)cc1C#Cc1cc(Cl)ccc1OCC(=O)O` [Example 49, (4-chloro-2-{[5-(methylsulfonyl)-2-propylphenyl]ethynyl}phenoxy)acetic acid], the concentration for half-maximal inhibition (IC50) in test [1] is 1190 nM; in test [3] it was 11 nM.

In the case of `CCCc1ccc(S(C)(=O)=O)cc1C#Cc1cc(C#N)ccc1OCC(=O)O` [Example 56, (4-cyano-2-{[5-(methylsulfonyl)-2-propylphenyl]ethynyl}phenoxy)acetic acid], the IC50 in test [4] amounted to 53 nM; in test [2], 49 nM; in test [3] it was 30 nM.

On to `CS(=O)(=O)c1ccc(F)c(C#Cc2cc(C#N)ccc2OCC(=O)O)c1` [Example 58, (4-cyano-2-{[2-fluoro-5-(methylsulfonyl)phenyl]ethynyl}phenoxy)acetic acid], for which, in test [4], the EC50 is 6 nM. Besides, the Emax in test [4] was 32%. The IC50 was 95 nM in test [1], 34 nM in test [2] and 14 nM in test [3].

As for `CS(=O)(=O)c1ccc(Cl)c(C#Cc2cc(Cl)ccc2OCC(=O)O)c1` [Example 59, (4-chloro-2-{[2-chloro-5-(methylsulfonyl)phenyl]ethynyl}phenoxy)acetic acid], the IC50 in test [4] is 14 nM; in test [2], 6 nM; in test [3], 6 nM.

For `Cc1ccc(S(=O)(=O)CC(C)C)cc1C#Cc1cc(C#N)ccc1OCC(=O)O` [Example 65, (4-cyano-2-{[5-(isobutylsulfonyl)-2-methylphenyl]ethynyl}phenoxy)acetic acid], the results for the half-inhibitory concentration (IC50) in test [1] and in test [3] were 123 nM and 9 nM, respectively.

With `Cc1ccc(S(=O)(=O)N(C)C)cc1C#Cc1cc(Cl)ccc1OCC(=O)O` [Example 83, [4-chloro-2-({5-[(dimethylamino)sulfonyl]-2-methylphenyl}ethynyl)phenoxy]acetic acid], the IC50 in test [1] came to 77 nM; in test [3], 7 nM.

With `Cc1ccc(S(=O)(=O)c2ccccc2)cc1C#Cc1cc(Cl)ccc1OCC(=O)O` [Example 95, (4-chloro-2-{[2-methyl-5-(phenylsulfonyl)phenyl]ethynyl}phenoxy)acetic acid], the 50% inhibitory concentration (IC50) was determined as 84 nM in test [4], 10 nM in test [2] and 9 nM in test [3]. Also, in test [2] (inverse agonists, 100% of Emax = activity with 1 μM PGD2), the Emax is -17%.

Take `CCc1ccc(S(C)(=O)=O)cc1C#Cc1cc(Cl)ccc1OCC(=O)O` [Example 100, (4-chloro-2-{[2-ethyl-5-(methylsulfonyl)phenyl]ethynyl}phenoxy)acetic acid]: the values for the IC50 in test [4], in test [1] and in test [3] were 23 nM, 100 nM and 3 nM, respectively.

In the case of `COCCN(C)S(=O)(=O)c1ccc(C)c(C#Cc2cc(Cl)ccc2OCC(=O)O)c1` [Example 109, {4-chloro-2-[(5-{[(2-methoxyethyl)(methyl)amino]sulfonyl}-2-methylphenyl)ethynyl]phenoxy}acetic acid], the half-inhibitory concentration (IC50) in test [1] was 77 nM; in test [3], 5 nM.

For the molecule `COCCNS(=O)(=O)c1ccc(C)c(C#Cc2cc(Cl)ccc2OCC(=O)O)c1` [Example 117, {4-chloro-2-[(5-{[(2-methoxyethyl)amino]sulfonyl}-2-methylphenyl)ethynyl]phenoxy}acetic acid], the IC50 turned out to be 88 nM in test [1] and 5 nM in test [3].
